Experimental data: article PMC10223284, “Category-Based Toxicokinetic Evaluations of Data-Poor Per- and Polyfluoroalkyl Substances (PFAS) using Gas Chromatography Coupled with Mass Spectrometry” (Toxics, 2023)
“And” between values parts separate entries of the source, which are not always exact repeats. Equal values may be shown once. Read-outs that look alike come from different tables or passages of the source.

Experiments:
[1] = Hepatic metabolic stability (hepatocyte clearance) assay, substrate depletion; assay type: in vitro ADME, human; conditions: both sexes, human; for half-life at 1 μM: read-out: Linear Regression Results, Best-Fit Values, Half Life
In short: (§1)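 Substrate depletion of 1 μM compound, 37 °C, with pooled human hepatocytes (50-donor, 50,000 cells/100 μL) in William's E; samples quenched in acetonitrile up to 240 min, triplicate time points. Intrinsic clearance (μL/min/million hepatocytes) and half-life derived from semi-log slope, background-adjusted using media-only and inactivated-cell controls; compounds with ≥50% abiotic loss at T120 excluded.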

[2] = test system: pooled human cryopreserved primary hepatocyte suspensions; assay: as above; assay type: in vitro ADME; conditions: for Linear Regression Results, Best-Fit Values, Slope: hepatocyte time course
In short: as §1

[3] = Abiotic loss in negative controls of the hepatocyte clearance assay (cell-free media, metabolically inactivated hepatocytes); assay type: in vitro ADME; conditions: for half-life at 1 μM / HT BkgdCl, Slope / No Cells BkgdCl, Slope: 0 vs 240 min; for Hep_Stab_Fail: flag for stability failure in hepatocyte clearance assay controls (1 or Fst = fail, 0 = pass)
In short: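 Abiotic stability was checked with media-only and inactivated-hepatocyte controls, run at T0 and T240 or, on rerun, at more time points. Compound at 1 μM, 37 °C, acetonitrile quench. Loss rates served for background subtraction, and ≥50% loss by T120 meant exclusion.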

[4] = In vitro-in vivo extrapolation (IVIVE) to Css and administered equivalent dose (AED); design: species or system human; conditions: for Clhep: IVIVE, hepatocyte Clint scaled to whole-liver clearance; for AED: administered equivalent dose from LOEC and Css; for Fub: fub=fup/(B:P), Fub set to 1 if needed; for CLint: scaled with HPGL 110 mill cells/g, Vl 1596 g
Description: Using the experimentally generated PPB (fraction unbound in plasma, fup) and hepatic Clint data, IVIVE was performed as previously described to calculate human steady-state plasma concentrations (Css). Briefly, experimental measures of fup are adjusted using blood:plasma partitioning information to estimate the fraction unbound in blood (fub). Experimental hepatocyte Clint data are scaled up to represent whole-liver clearance (L/h). […] Once estimated, these Css values are considered in conjunction with published in vitro bioactivity concentrations (i.e., lowest-observed effective concentrations, or LOECs) to calculate AEDs (Table 2). See Table S10 for all relevant IVIVE inputs, scalars, calculations, and outputs.

[5] = test system: human primary cells; conditions: cited from earlier work
[6] = in vitro; conditions: both, human, plasma
[7] = test system: human plasma; assay: Chemical stability in plasma over the UC assay time course (T5hr/T1hr); conditions: for PPB_Stab_Fail: flag for stability failure in the plasma protein binding assay (1 = fail, 0 = pass); for Fstable.Med: median fraction stable in plasma, UC assay Level4
[8] = test system: human plasma; assay: Ultracentrifugation (UC) plasma protein binding assay, fraction unbound in plasma (fup); conditions: for fup: human plasma, 10 μM, ultracentrifugation, 37 °C; for Fup.Med: median fraction unbound in plasma; for Fup.Med / Fup.point: UC assay Level4; for Fup.point: point estimate of fraction unbound in plasma
[9] = hepatocytes, background-subtracted, read-out: Bkgd-Sub Clearance (µL/min/106 hepatocytes)
[10] = hepatocytes, hepatocyte clearance, Conc 1000 nM, not background adjusted, read-out: Unadj Clint
[11] = hepatocytes, pooled human hepatocyte suspensions, 1 μM, read-out: In Vitro Clint
[12] = hepatocytes, unadjusted hepatocyte intrinsic clearance, read-out: Unadj in vitro Clint
[13] = hepatocytes, hepatocyte time course, NS = slope not significant, read-out: Linear Regression Results, Best-Fit Values, Clearance
[14] = hepatocytes, hepatocyte time course, NS = slope not significant
[15] = hepatocyte incubation, Rep 1-3, start conc 1000 nM
[16] = both sexes, human, heat treated hepatocytes control, read-out: HT BkgdCl, Half Life
[17] = buffer, no cells control, read-out: No Cells BkgdCl, Half Life
[18] = heat treated hepatocytes control
[19] = heat treated hepatocytes, Rep 1-3
[20] = Assuming 1 mg/kg/day dose rate, BW 70 kg
[21] = human steady-state plasma concentration, assuming 1 mg/kg/day dosage
[22] = BioSeek lowest-observed effect concentration used for AED
[23] = minimum lowest-observed effect concentration, BioSeek platform
[24] = Mean fu, fraction unbound in human plasma, ultracentrifugation, some values based on eLOQ

Row | Structure (SMILES) | hepatocyte CLint at 1 μM [1, 9] [µL/min/1e6 cells] | hepatocyte CLint at 1 μM [1, 10] [µL/min/1e6 cells] | hepatocyte CLint at 1 μM [1, 11] [µL/min/1e6 cells] | hepatocyte CLint at 1 μM [1, 12] [µL/min/1e6 cells] | hepatocyte CLint at 1 μM [1, 13] [µL/min/1e6 cells] | half-life at 1 μM [1, 14] [h] | Concentration (nM), Time 15 min [2, 15] | Concentration (nM), Time 30 min [2, 15] | Concentration (nM), Time 60 min [2, 15] | Linear Regression Results, Best-Fit Values, Slope [2] | half-life at 1 μM [3, 16] [h] | half-life at 1 μM [3, 17] [h] | Hep_Stab_Fail [3] | HT BkgdCl, Slope [3, 18] | No Cells BkgdCl, Slope ([3]; no cells control) | Negative Controls, No cells (NC), concentration at 0 min ([3]; Rep 1-3) | Negative Controls, No cells (NC), concentration at 240 min ([3]; Rep 1-3) | Css [4, 20] | Clhep [4] [L/h] | AED [4] [mg/kg/day] | also measured
1 | Cc1ccc(S(=O)(=O)OCC(F)(F)C(F)(F)C(F)(F)C(F)(F)C(F)(F)C(F)F)cc1 [1H,1H,7H-Perfluoroheptyl 4-methylbenzenesulfonate] | 23.9 | 31 | 23.9 | 31 | 31 | 0.746 | 1073.03 nM and 1187.92 nM and 943.206 nM | 985.478 nM and 1012.58 nM and 870.92 nM | 899.811 nM and 874.355 nM and 982.505 nM | -0.01549 | 2.62 | 3.24 | 0 | -0.004413 | -0.003563 | 1381.59 nM and 1965.43 nM and 2200.38 nM | 723.371 nM and 790.633 nM and 803.182 nM | 4.87 mg/L and 10.01 uM | 0.588 | 0.6995 | Negative Controls, Heat Treated (HT), concentration at 0 min [3, 19]: 1655.88 nM and 1540.88 nM and 2130.45 nM; Negative Controls, Heat Treated (HT), concentration at 240 min [3, 19]: 752.335 nM and 712.914 nM and 422.601 nM; Fub [4]: 0.002357; Css [4, 21]: 10.01 µM; CLint [4]: 4187106 µL/min; LOEC [5, 22]: 7.00 µM; LOEC [5, 23]: 7 µM; fraction unbound ([6]; Fraction Unbound (fu), Run-specific Avg, average of one UC run (run date in line above)): 0.03; fraction unbound [6, 24]: 0.029; Stability (T5hr/ T1hr), Run-specific Avg ([7]; average of one UC run (run date in line above)): 0.983; PPB_Stab_Fail [7]: 0; Mean Stability ([7]; mean T5hr/T1hr ratio over all replicates and runs, plasma): 1.006; Fstable.Med [7]: 1; Stability (T5hr/ T1hr), replicates A, B, C ([7]; single replicate of one UC run): 0.9436 and 0.9774 and 1.0981; fup [8]: 0.0290; Fup.Med [8]: 0.116; Fup.point [8]: 0.0275; Fraction Unbound (fu), replicates A, B, C ([8]; single replicate of one UC run (aqueous fraction / Time 5 hr)): 0.01902 and 0.02822 and 0.04008
2 | NC(=O)C(F)(F)C(F)(F)C(F)(F)C(F)(F)F [Nonafluoropentanamide] | 26 | 34.9 | 26 | 34.9 | 34.9 | 0.661 | 214.882 nM and 126.475 nM and 193.144 nM | 192.232 nM and 153.873 nM and 192.317 nM | 74.6949 nM and 76.5031 nM and 55.8443 nM | -0.01747 | 1.58 | 2.59 | 0 | -0.007311 | -0.004457 | 364.995 nM and 386.302 nM and 296.545 nM | 132.756 nM and 122.614 nM and 103.779 nM | 0.06 mg/L and 0.23 uM | 47.130 | 31.0338 | hepatocyte CLint at 1 μM ([1]; s9, Bayesian analysis median, 1 μM assay concentration (Table S9), read-out: Clint.1.Med): 88.7 µL/min/1e6 cells; Concentration (nM), Time 0 min [2, 15]: 390.162 nM and 651.917 nM and 499.488 nM; Concentration (nM), Time 120 min [2, 15]: 22.6965 nM and 21.4336 nM and 13.3509 nM; Fub [4]: 0.3609; Css [4, 21]: 0.23 µM; CLint [4]: 4569125 µL/min; LOEC [5, 22]: 7.00 µM; LOEC [5, 23]: 7 µM; fraction unbound ([6]; Fraction Unbound (fu), Run-specific Avg, run-specific average): 0.2; fraction unbound ([6]; Fraction Unbound (fu), replicate A, individual replicate A of the UC run dated in c8): 0.228; fraction unbound ([6]; Fraction Unbound (fu), replicate B, individual replicate B of the UC run dated in c8): 0.178; fraction unbound ([6]; Fraction Unbound (fu), replicate C, individual replicate C of the UC run dated in c8): 0.191; fraction unbound [6, 24]: 0.199; PPB_Stab_Fail [7]: 0; Mean Stability (T5hr/T1hr) ([7]; mean over all UC runs and replicates, human plasma): 0.975; Fstable.Med [7]: 0.999; Stability (T5hr/ T1hr), Run-specific Avg ([7]; run-specific average): 0.945; fup [8]: 0.1985; Fup.Med [8]: 0.192; Fup.point [8]: 0.199
